PMC9179882 (Cancers, 2022)

Legend:
[1] = system: CMYC (CD and UV-vis oligonucleotide) (DNA, G4) TGGGGAGGGTGGGGAGGGTGGGGAAGG; assay: UV-vis titration at 265 nm; conditions: 100 mM KCl, 10 mM potassium phosphate; pH 7.0, 25 °C; 5 µM DNA; GA to 1:20 DNA:GA
5′ETS G4 = assay: UV-vis titration, 5′ETS G4; type: binding; conditions: UV-vis titration at 265 nm, 5′ETS G4, 25 °C, pH 7.0; read-out: dissociation constant (Kd)
Experimental: (§1) G4-oligonucleotides listed in Supplementary Table S3 were purchased from Integrated DNA Technologies (Clareville, IA, USA). All of them were dissolved in G4s buffer (10 mM potassium phosphate, 100 mM potassium chloride at pH 7.0), heated at 95 °C for 10 min, slowly cooled to RT, and stored at 4 °C.
(§2) UV-vis absorption spectra were registered in a Varian Cary 50 UV-vis spectrophotometer at 25 °C. Concentration of the prefolded G4 DNA was 5 μM in G4s buffer (10 mM potassium phosphate buffer containing 100 mM potassium chloride at pH 7.0). Once the DNA was placed in the cuvette, a concentrated solution of GA (1 mM) was routinely added, 1 μL each time, with a Hamilton syringe and subsequently mixed with a pipette. After each addition of the GA solution, a UV-vis spectrum was recorded. In total, 10 μL of GA solution were added, with a final ratio of 1:20 G4 DNA:GA. For the blank, the same experiment with the successive additions was repeated, beginning just with buffer in the cuvette. […] Dissociation constants (Kd) were evaluated at 265 nm using the following equation:(1) A=Am+(Aml-Am)×(M+L+Kd)−(M+L+Kd)^2−4×M×L/2×M where A is the absorbance signal, Am is the signal of DNA in absence of the ligand, Aml is the signal of DNA in presence of the ligand, M is the total concentration of DNA, L is the total concentration of ligand, and Kd is the dissociation constant.

[2] = system: CMYC (FID oligonucleotide) (DNA, G4) GGGGCGCTTATGGGGAGGGTGGGGAGGGTGGGGAAGGTGGGGAGGAG; assay: fluorescent intercalator displacement (TOPRO3); conditions: oligonucleotide prefolded in 100 mM KCl, 10 mM potassium phosphate; TOPRO3 displaced; 10 µM GA, single concentration; prefolding buffer pH 7.0
SW480 cells = assay: Resazurin cytotoxic assay, tumoral SW480; type: cell-based, human; conditions: SW480 primary tumor cells, mean ± SD
Experimental: (§3) CRL1790, SW480 and SW620 cell lines were purchased from American Type Culture Collection (ATCC). Cells were cultured at 37 °C with 5% CO2 atmosphere in medium supplemented with 10% fetal bovine serum (10270106, Gibco, Waltham, MA, USA), 10 mg/mL penicillin, 10 mg/mL streptomycin, […] amphotericin, and 0.03% L-Glutamine as recommended by the ATCC. MEM medium (M5650, Merck, Darmstadt, Germany) was used for non-tumoral CRL1790, and RPMI 1640 medium (L0501-500, Biowest, Nuaillé, France) was used for both tumoral SW480 and SW620 cell lines.
(§4) Cytotoxic activity was screened using Resazurin Fluorimetric Assay (R7017, Merck, Darmstadt, Germany), according to the manufacturer’s protocol. Cells seeded into 96-well plates (8 × 10^3 cells/well) were treated for 48 h with phenolic compounds at increasing concentrations from 2 × 10^−5 µM to 100 µM. Negative control with vehicle DMSO was included. Fluorescence was determined using Nanoquant Infinite M200 Pro multi-plate reader (Tecan). Half-maximal inhibitory concentration (IC50) values were determined in triplicate by non-linear regression with Graphpad (Prism).
(§5) Natural products such as phenolic compounds have recently attracted significant attention for their anticancer properties. […] We used three different cell lines to mimic CRC progression. In particular, CRL1790 are colon epithelial cells simulating the non-tumoral stage. In addition, SW480 is Dukes’ type B colorectal adenocarcinoma cells representing the primary tumor. Finally, SW620 constitutes Dukes’ type C colorectal adenocarcinoma derived from metastasic site cells to mimic the most aggressive metastasic stage. […] Cytotoxic potency upon 48 h treatment with phenolic compounds was examined by determination of half-maximal inhibitory concentration (IC50) values using the Resazurin method (Table 1). Only GA inhibited cell growth in SW480 and SW620 at clinically-relevant concentrations (IC50 values lower than 30 µM).

[3] = system: 5′ETS (DNA, G4) GGGGGGCGGGTGGTTGGG; assay: fluorescent intercalator displacement (TOPRO3); conditions: oligonucleotide prefolded in 100 mM KCl, 10 mM potassium phosphate; TOPRO3 displaced; 10 µM GA, single concentration; prefolding buffer pH 7.0
CMYC G4 [4] = assay: PCR-stop assay, CMYC G4; type: biochemical; conditions: CMYC G4 sequence, GA 0-100 µM
CRL1790 cells = assay: Resazurin cytotoxic assay, non-tumoral CRL1790; type: cell-based; conditions: Homo sapiens, Epithelial cell, CRL1790 non-tumoral colon epithelial cells, 48 h, mean ± SD
Experimental: as §3, §4, §5

CMYC G4 [5] = assay: UV-vis titration, CMYC G4; type: binding; conditions: UV-vis titration at 265 nm, CMYC G4, 25 °C, pH 7.0; read-out: dissociation constant (Kd)
Experimental: as §1, §2

CMYC G4 [6] = assay: TOPRO3 fluorescent intercalator displacement (FID) assay, CMYC G4; type: binding; conditions: GA 10 µM, relative to GA-free control, CMYC promoter G4
Experimental: as §1
We used TOPRO3 (T3605, Thermo Scientific, MA, USA) as a fluorescent intercalator for FID assays. In particular, […] TOPRO3 was incubated with […] prefolded G4s and exposed to 10 µM GA in 96-well plates. TOPRO3 was excited at 642 nm, and emission profile was monitored between 650–800 nm with Infinite M200 Plate Reader (Tecan). Fluorescence values were calculated as follows: %Fluorescence = A/B × 100; where (A) is the fluorescence value in presence of GA, and (B) corresponds to the fluorescence value in GA-free controls. All assays were conducted in triplicate. The G4-oligonucleotides used in the current study are listed in Supplementary Table S3.

Kd [1]: 113 µM | Kd (5′ETS G4): 148 µM | %Fluorescence [2]: 84.3% | %Fluorescence [3]: 84.2% | Kd (CMYC G4 [5]): 113 µM | TOPRO3 fluorescence percentage (CMYC G4 [6]): 84.3%
SMILES: O=C(O)c1cc(O)c(O)c(O)c1 [Gallic acid, 3,4,5-trihydroxybenzoic acid]
IC50 (SW480 cells; Homo sapiens, SW480, 48 h): < 30 µM | IC50 (SW480 cells; 48 h): 22.4 ± 2.12 µM | concentration inhibiting accumulation of amplified products (CMYC G4 [4]): 50 µM | IC50 (CRL1790 cells): > 100 µM
